Measurements as given in patent US8653257B2, “Dibenzothiazepine derivatives and uses thereof—424” (Astrazeneca AB, priority 2008, dated 2014).

Key:
dopamine D2s receptor = dopamine D2s receptor (Homo sapiens (Human), UniProt P14416); assay: D2 antagonist GTPγS functional assay; format: biochemical; settings: antagonist mode
Experimental: In vitro experimental assays can generally be carried out as described herein. Briefly, CHO-K1 cells stably transfected with the dopamine D2s receptor can be used in the experiments and maintained in Ham's F12 culture medium supplemented with 2 mM L-glutamine, 10% FBS, and 500 μg/ml Hygromycin.
GTPgS assay can be performed substantially as described by Lazareno, Methods in Molecular Biology, 1999, 106, 231-245. Antagonist activity of compounds can be determined by the ability of test compounds to block dopamine-stimulated [^35S]-GTPγS binding to cell membranes from D2s stably-transfected CHO cells.

H1 receptor = H1 receptor (Homo sapiens (Human), UniProt P35367); assay: H1 receptor binding; set-up: species or system Hu; settings: one average result
Excerpt: The H1 receptor binding method can be carried out in accordance with De Backer et al., Biochem. Biophys. Res. Commun., 1993, 197(3), 1601.

[1] = tested on: D-Amphetamine-induced Hyperlocomotor Activity; assay: D-Amphetamine-induced hyperlocomotor activity (LMA) in habituated rat model; format: in vivo, male Long Evans rats; settings: 30 mg/kg and 60 mg/kg (sc)
Experimental: Studies in vivo can be used to determine the antipsychotic effect and are generally carried out as follows. Briefly, D-Amphetamine-induced Hyperlocomotor Activity (LMA) in a Habituated Rat Model can be assessed in male Long Evans rats using a paradigm that includes a habituation phase followed by administration of 1 mg/kg D-amphetamine. Animals can be allowed to acclimatize to the testing room for 1 hour before being weighed and placed into activity chambers. Thirty minutes after LMA measurement is begun, animals can be briefly removed, dosed via the sub-cutaneous route (s.c.) with vehicle or test drug at different doses and returned to the chambers. After a further 30 minutes, animals can again be removed and dosed with vehicle or D-amphetamine at 1 mg/kg (s.c.). After returning the animals to the activity chambers, LMA can be assessed for a further 60 minutes. Haloperidol (0.1 mg/kg dissolved in H2O) can be administered 15 minutes prior to D-amphetamine via the s.c. route. Statistical analysis can be made of total distance traveled after D-amphetamine administration using ANOVA and Tukey's post hoc analysis where appropriate. All values can be expressed as Mean and SD.

[2] = tested on: Conditioned Avoidance Responding; assay: Conditioned avoidance responding (CAR) assay; format: in vivo, Male Long-Evans rats; settings: 30 mg/kg and 60 mg/kg (sc), rat
Experimental: Male Long-Evans rats can be trained to traverse to the opposite side of a standard shuttle cage following presentation of an auditory and visual stimulus to avoid delivery of electric shock to the floor of the cage. Daily sessions can consist of up to 80 trials. If a shock is delivered, animals have the opportunity to escape the shock by traversing to the opposite side of the cage. Drug can be administered (via s.c. or p.o. route) 60 minutes prior to testing and the percentage of trials in which shock is avoided and escaped can be recorded.

Chain of dopamine D2s receptor (P14416 other isoform, or with tags, fused parts or gaps): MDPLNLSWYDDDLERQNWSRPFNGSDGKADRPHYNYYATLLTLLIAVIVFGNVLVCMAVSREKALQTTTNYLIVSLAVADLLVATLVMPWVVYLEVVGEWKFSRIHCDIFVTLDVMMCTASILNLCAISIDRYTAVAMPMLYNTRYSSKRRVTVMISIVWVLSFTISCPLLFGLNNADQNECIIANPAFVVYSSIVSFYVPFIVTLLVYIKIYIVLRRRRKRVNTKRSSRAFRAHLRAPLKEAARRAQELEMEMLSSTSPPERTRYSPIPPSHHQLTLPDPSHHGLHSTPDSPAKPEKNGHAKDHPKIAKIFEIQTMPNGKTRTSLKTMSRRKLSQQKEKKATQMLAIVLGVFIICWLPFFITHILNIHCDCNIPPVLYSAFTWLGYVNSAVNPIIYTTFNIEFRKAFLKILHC
Chain of H1 receptor (P35367 whole entry): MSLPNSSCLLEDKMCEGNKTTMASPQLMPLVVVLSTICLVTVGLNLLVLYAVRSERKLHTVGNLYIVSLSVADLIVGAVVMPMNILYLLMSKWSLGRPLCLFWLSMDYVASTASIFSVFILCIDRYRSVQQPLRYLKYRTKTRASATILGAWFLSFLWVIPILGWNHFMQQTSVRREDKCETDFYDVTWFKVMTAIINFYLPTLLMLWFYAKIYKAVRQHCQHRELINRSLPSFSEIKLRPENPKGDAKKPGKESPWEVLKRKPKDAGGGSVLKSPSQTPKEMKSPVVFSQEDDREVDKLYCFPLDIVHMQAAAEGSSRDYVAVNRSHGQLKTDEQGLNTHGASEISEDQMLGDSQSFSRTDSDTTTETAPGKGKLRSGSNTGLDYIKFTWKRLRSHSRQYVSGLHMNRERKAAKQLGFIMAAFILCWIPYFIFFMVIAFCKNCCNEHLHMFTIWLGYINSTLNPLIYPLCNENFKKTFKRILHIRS

| D2 Ant GTPγS Top Effect (dopamine D2s receptor) | Ki (H1 receptor) | SMILES | activity in D-amphetamine-induced hyperlocomotor activity [1] | activity in conditioned avoidance responding [2] |
| --- | --- | --- | --- | --- |
| 89 | – | c1ccc2c(c1)N=C(N1CCNCC1)c1ccccc1S2 [11-Piperazin-1-yl-dibenzo[b,f][1,4]thiazepine] | – | – |
| 97 | ~7.1 nM | Fc1ccc2c(c1)C(N1CCNCC1)=Nc1ccccc1S2 [Example 1, 2-fluoro-11-(piperazin-1-yl)dibenzo[b,f][1,4]thiazepine] | showed activity | showed activity |

Further lines, the compound ahead of its results:

| SMILES | D2 Ant GTPγS Top Effect (dopamine D2s receptor) | Ki (H1 receptor) | activity in D-amphetamine-induced hyperlocomotor activity [1] | activity in conditioned avoidance responding [2] |
| --- | --- | --- | --- | --- |
| CN1CCN(C2=Nc3ccccc3Sc3ccc(Cl)cc32)CC1 [2-Chloro-11-(4-methyl-piperazin-1-yl)-dibenzo[b,f][1,4]thiazepine] | 100 | – | – | – |
| Clc1ccc2c(c1)C(N1CCNCC1)=Nc1ccccc1S2 [2-Chloro-11-piperazin-1-yl-dibenzo[b,f][1,4]thiazepine] | 100 | – | – | – |
| CN1CCN(C2=Nc3ccccc3Sc3ccc(F)cc32)CC1 [2-Fluoro-11-(4-methyl-piperazin-1-yl)-dibenzo[b,f][1,4]thiazepine] | 100 | – | – | – |
